Assays:
[1] = Urine analysis by proton NMR after chondroitinase AC treatment; format: in vivo, dog; settings: chondroitinase AC treated, route not distinguished
Experimental: (§1) Bioavailability studies in which the animals received 40 mg of heparin by the oral route or 10 mg by the subcutaneous route over a period of three days.
(§2) Four dogs (2 for each treatment), each approximately 15 kg in weight.
(§3) The urine samples were treated with chondroitinase AC to eliminate the endogenous chondroitins. The residue was analyzed by means of proton NMR and HPLC (to determine the molecular weight).

[2] = Urine analysis by HPLC (molecular weight) after chondroitinase AC treatment; format: in vivo, dog; settings: chondroitinase AC treated, route not distinguished
Experimental: as §1, §2, §3

Xa = assay: Bioavailability test in dogs: anti-Xa activity in the plasma, ex-vivo chromogenic test (Coatest); design: species or system dog
Experimental: Bioavailability tests on the capsules prepared according to examples 1 and 2.
as §1, §2
A bioassay (anti-Xa activity) was used to measure the concentrations in the plasma.
The anti-Xa activity in the plasma was measured ex-vivo using a chromogenic test using a commercially available kit (Coatest) and expressed in IU/ml. The values were calculated from a calibration curve obtained in-vitro by adding different quantities of SLMWH to dog plasma.
The blood was extracted from the femoral vein. Starting on the second day of experiments samples were collected before and 1, 2, 3, 4 and 6 hours after oral or subcutaneous administration, sodium citrate was added to the samples (9 vol. sangre:1 vol. 3.8% sodium citrate) followed by centrifuging at 1200 rpm for 20 minutes at 4° C. The plasma was separated immediately and the anti-Xa activity was tested.

[3] = oral, capsules (examples 1 and 2), 40 mg heparin, second day
[4] = subcutaneous, 10 mg heparin, second day

With “sodium heparin of low molecular weight [SLMWH]” the “H1-NMR test of urine” value [1] was “presence of partially disulphated heparin”, the “molecular weight of the urine residue (HPLC)” value [2] was 5 kDaltons and the “levels of heparin in the blood (anti-Xa activity method)” value (Xa; [3]) was “detectable”. The “peak values of anti-Xa activity in plasma” value (shortened to “peak values”) (Xa; [3]) was 0.2-0.4 IU/ml, the “peak values” value (Xa; oral, capsules (examples 1 and 2), 40 mg heparin, third day, 1 and 2 hours after administration) was 0.8-1.2 IU/ml and the “significant anti-Xa activity in plasma after 6 hours” value (Xa; oral, capsules (examples 1 and 2), 40 mg heparin, third day) was over 0.3 IU/ml. The “significant continued anti-Xa activity (>0.1 IU/ml) for 3 hours” value (Xa; oral, capsules, 40 mg heparin, second day, not found after oral) was “only after subcutaneous administration”, the “levels of heparin in the blood (anti-Xa activity method)” value (Xa; subcutaneous injection, 10 mg heparin, second day) was “detectable” and the “duration of significant continued anti-Xa activity (>0.1 IU/ml) in plasma” value (Xa; [4]) was 3 h. The “peak values” value (Xa; [4]) was 0.2-0.4 IU/ml, the “significant continued anti-Xa activity in plasma” value (Xa; subcutaneous, 10 mg heparin, second day, for 3 hours) was over 0.1 IU/ml and the “peak values” value (Xa; subcutaneous, 10 mg heparin, third day, 1 and 2 hours after administration) was 0.8-1.2 IU/ml. The “significant anti-Xa activity in plasma after 6 hours” value (Xa; subcutaneous, 10 mg heparin, third day) was over 0.3 IU/ml and the “basal values of anti-Xa activity before the final dose” value (Xa; third day vs previous day, oral or subcutaneous, route not distinguished) was “significantly higher than the corresponding values on the previous day”.

Source: US5736161A, “Pharmaceutical preparation for improving the bioavailability of drugs which are difficult to absorb and a procedure for obtaining it” (Lipotec S.A., priority 1993, dated 1998)
